# Measurements published in PMC8450354, “Codon Optimization of Insect Odorant Receptor Genes May Increase Their Stable Expression for Functional Characterization in HEK293 Cells” (Frontiers in Cellular Neuroscience, 2021).
# What was measured:
# Assay in all cases: calcium fluorescence (Fluo-4AM) assay, inducible stable HEK293 cells
# Assay type in all cases: cell-based
# ItypOR25 = target: T1, ItypOR25 (Ips typographus, UniProt A0A8F3ERC7)
# T1 construct: full-length, N-terminal V5 tag, codon-optimized gene; with ItypOrco
# T1 sequence (A0A8F3ERC7 1-394): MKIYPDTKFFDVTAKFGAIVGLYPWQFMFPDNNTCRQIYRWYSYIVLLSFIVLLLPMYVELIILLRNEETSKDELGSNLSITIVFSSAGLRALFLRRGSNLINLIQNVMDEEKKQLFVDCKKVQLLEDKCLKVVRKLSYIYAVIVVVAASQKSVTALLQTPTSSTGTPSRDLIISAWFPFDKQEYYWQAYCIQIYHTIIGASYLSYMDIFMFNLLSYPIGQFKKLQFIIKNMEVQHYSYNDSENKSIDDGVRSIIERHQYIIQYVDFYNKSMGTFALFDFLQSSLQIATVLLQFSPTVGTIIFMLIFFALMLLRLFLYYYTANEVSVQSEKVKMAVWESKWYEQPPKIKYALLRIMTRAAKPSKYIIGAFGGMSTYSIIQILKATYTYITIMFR
# T1 sequence (A0A7L8XYY7 1-480 partner): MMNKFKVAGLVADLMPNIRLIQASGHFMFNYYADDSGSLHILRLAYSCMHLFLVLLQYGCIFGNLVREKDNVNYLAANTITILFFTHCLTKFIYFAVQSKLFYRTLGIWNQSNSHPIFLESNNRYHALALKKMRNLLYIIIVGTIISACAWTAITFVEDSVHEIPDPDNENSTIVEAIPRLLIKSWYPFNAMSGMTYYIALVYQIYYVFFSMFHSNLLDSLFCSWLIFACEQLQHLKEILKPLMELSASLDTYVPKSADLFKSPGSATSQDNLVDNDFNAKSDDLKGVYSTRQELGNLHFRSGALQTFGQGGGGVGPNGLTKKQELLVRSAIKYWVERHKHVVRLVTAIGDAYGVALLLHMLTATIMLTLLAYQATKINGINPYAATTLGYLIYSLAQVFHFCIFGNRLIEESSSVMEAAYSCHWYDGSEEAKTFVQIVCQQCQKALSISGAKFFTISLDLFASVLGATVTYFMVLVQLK
# ItypOrco = target: T2, ItypOrco (Ips typographus, UniProt A0A7L8XYY7)
# T2 construct: full-length, N-terminal Myc tag, codon-optimized gene, expressed without an OR
# ItypOR49 = target: T3, ItypOR49 (Ips typographus, UniProt A0A7L8XYT4)
# T3 construct: full-length, N-terminal V5 tag, codon-optimized gene; with ItypOrco
# T3 sequence (A0A7L8XYT4 entry or part of it, one chain of several): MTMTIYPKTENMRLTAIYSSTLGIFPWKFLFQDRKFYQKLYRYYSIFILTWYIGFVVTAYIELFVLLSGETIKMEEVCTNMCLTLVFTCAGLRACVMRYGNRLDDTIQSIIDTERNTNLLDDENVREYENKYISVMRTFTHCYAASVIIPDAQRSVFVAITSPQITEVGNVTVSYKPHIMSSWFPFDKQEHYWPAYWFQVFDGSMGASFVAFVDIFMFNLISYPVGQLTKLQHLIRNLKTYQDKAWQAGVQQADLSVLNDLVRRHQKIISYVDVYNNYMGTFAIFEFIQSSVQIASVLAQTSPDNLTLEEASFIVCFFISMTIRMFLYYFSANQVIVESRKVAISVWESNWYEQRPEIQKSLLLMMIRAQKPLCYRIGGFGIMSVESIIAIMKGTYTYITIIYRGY
compound,measurement,setting,value
CC1=CC[C@@H]2[C@H](C1)C2(C)C [(+)-3-carene],EC50,ItypOR25,~24.5 µM
CCc1ccc(NC(=O)CSc2nnc(-c3cccnc3)n2CC)cc1 [VUAA1],EC50,ItypOrco,21.1 µM
C=CC(=C)C[C@@H](O)C=C(C)C [(R)-(−)-ipsdienol],EC50,ItypOR49,7.1 µM
